# Assay results as given in patent US12571793B2, “Method for evaluating biofilm formation, and invertebrate for use in evaluating biofilm formation” (MEIJI PHARMACEUTICAL UNIVERSITY, priority 2020, dated 2026).
# Tested on: C. albicans strain SC5314
# Experiment: Test Example 5: suppression effect of antifungal drugs on biofilm formation on polyurethane fibers in silkworms, drug given 12 hours after inoculation
# Format: in vivo, Candida albicans (in silkworm)
# Conditions: antifungal drug administered 12 hours after inoculation of C. albicans; fibers extracted 24 hours after inoculation; compared with physiological saline
# Method: Biofilms formed on the surface of the polyurethane fibers after the culture were stained with crystal violet, and the biofilms were quantified. The biofilms were stained as follows. Each of the polyurethane fibers were moved to a 1.5-ml tube and washed with 1 ml of distilled water twice. Then, 500 μl of an aqueous 0.1% crystal violet solution was added, and the polyurethane fiber was placed at room temperature for 20 to 60 minutes. The stain solution was discarded, and the polyurethane fiber were washed with 1 ml of distilled water 3 times. The polyurethane fibers were washed with 1 ml of ethanol twice and then air-dried. The polyurethane fibers were observed under a microscope (×10, CH30, Olympus Corporation), and photographs were taken. Then, 500 μl of 33% acetic acid solution was added, and the polyurethane fibers were left to stand at room temperature for 2 hours or more. The absorbance (OD590) of the sample to which 500 μl of distilled water was added to adjust the total volume to 1 ml was measured.
# Next, it was examined whether biofilms by C. albicans were formed on the surface of the polyurethane fibers in the bodies of silkworms. Silkworms in which the polyurethane fibers were inserted were inoculated with 50 μl of physiological saline solution (saline) or 50 μl of a suspension of C. albicans strain SC5314 (7×10^7 cells/ml) and bred at 27° C. for 24 hours. […]
compound,measurement,value
C[C@@H]1[C@H](O)[C@@H](C)/C=C/C=C/C=C/C=C/C=C/C=C/C=C/[C@H](O[C@@H]2O[C@H](C)[C@@H](O)[C@H](N)[C@@H]2O)C[C@@H]2O[C@](O)(C[C@@H](O)C[C@@H](O)[C@H](O)CC[C@@H](O)C[C@@H](O)CC(=O)O[C@H]1C)C[C@H](O)[C@H]2C(=O)O [amphotericin B],"biofilm formation on the polyurethane fiber in the bodies of the silkworms (crystal violet, absorbance 590 nm)",significantly suppressed
